Measurements taken from US9890147B2 (BAYER PHARMA AKTIENGESELLSCHAFT, priority 2012, dated 2018).
pIC50: −log10 of the molar value.

Key:
[1] = target: T1, BRD4 (BD1) (Homo sapiens, UniProt O60885); test: Binding assay BRD4/acetylated peptide H4 (TR-FRET protein-protein interaction assay)
T1 construct: with relatively long constructs also being possible, preferably amino acids 44-168; made in house; host or cells: E. coli
Outline: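 His6-BRD4 BD1 (aa 67-152, E. coli), usually 10 nM, with biotinylated tetra-acetylated H4 peptide in HEPES pH 7.5 buffer; 11 compound concentrations 0.1 nM–20 μM in duplicate, 10 min preincubation, 1 h at 22 °C then ≥3 h at 4 °C. TR-FRET 665/620 ratio; IC50 by 4-parameter fit.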

[2] = tested on: MOLP-8 cells; test: Cell proliferation assay (alamarBlue), MOLP-8; type: cell-based; conditions: Homo sapiens, 120 hours incubation, inhibition of cell proliferation
Protocol: (§1) In accordance with the invention, the capability of the substances to inhibit cell proliferation was determined Cell viability was determined using the alamarBlue® reagent (Invitrogen) in a Victor X3 Multilabel Reader (Perkin Elmer). The excitation wavelength was 530 nm and the emission wavelenth […].
The MOLP-8 cells (DSMZ, ACC 569) were sown at a concentration of 4000 cells/well in 100 μl growth medium (RPMI1640, 20% FCS) on 96-well microtitre plates.
(§2) After an overnight incubation at 37° C., the fluorescence values (CI values) were determined. The plates were then treated with various substance dilutions (1E-5 M, 3E-6 M, 1E-6M, 3E-7 M, 1E-7 M, 3E-8 M, 1E-8 M) and incubated at 37° C. for 72 (MV4-11-, LOX-IMVI cells), 96 (MOLM-13-, B16F10-, MDA-MB-431-, Caov-3 cells), 120 (MOLP-8-, KMS-12-PE cells) or 168 (LAPC-4 cells) hours. The fluorescence values (CO values) were then determined. For the data analysis, the CI values were subtracted from the CO values and the results were compared between cells treated with different dilutions of the substance or with buffer solution only. These were used to calculate the IC 50 values (substance concentration required for 50% inhibition of cell proliferation).

[3] = tested on: MOLM-13 cells; test: Cell proliferation assay (alamarBlue), MOLM-13; type: cell-based; conditions: Homo sapiens, 96 hours incubation, inhibition of cell proliferation
Outline: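 Cells in RPMI1640/10% FCS read by alamarBlue fluorescence (ex 530, em 590 nm) after overnight 37 °C incubation, then treated at 1E-5 to 1E-8 M for 96 h. Pre-treatment values subtracted from endpoint values and compared with buffer-only wells; IC50 is 50% proliferation inhibition.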

[4] = tested on: MV4-11 cells; test: Cell proliferation assay (alamarBlue), MV4-11; type: cell-based; conditions: Homo sapiens, 72 hours incubation, inhibition of cell proliferation
Protocol: as §1
The MV4-11 cells (ATCC, CRL 9591) were sown at a concentration of 5000 cells/well in 100 μl growth medium (RPMI1640, 10% FCS) on 96-well microtitre plates.
as §2

[5] = tested on: KMS-12-PE cells; test: Cell proliferation assay (alamarBlue), KMS-12-PE; type: cell-based; conditions: Homo sapiens, 120 hours incubation, inhibition of cell proliferation
Protocol: as §1
The KMS-12-PE cells (DSMZ, ACC 606) were sown at a concentration of 4000 cells/well in 100 μl growth medium (RPMI1640, 20% FCS) on 96-well microtitre plates.
as §2

[6] = tested on: LOX-IMVI cells; test: Cell proliferation assay (alamarBlue), LOX-IMVI; type: cell-based; conditions: Homo sapiens, 72 hours incubation, inhibition of cell proliferation
Protocol: as §1
The LOX-IMVI cells (NCI-60) were sown at a concentration of 1000 cells/well in 100 μl growth medium (RPMI1640, 10% FCS) on 96-well microtitre plates.
as §2

CNC(=O)N1N=C(c2ccc(Cl)cc2)c2cc(-n3nc(C)cc3C)ccc2CC1C (racemic) [Example 174, (±)-1-(4-Chlorophenyl)-8-(3,5-dimethyl-1H-pyrazol-1-yl)-N,4-dimethyl-4,5-dihydro-3H-2,3-benzodiazepine-3-carboxamide]
pIC50 [1]: 6.60
pIC50 [2]: 5.69
pIC50 [3]: 5.63

CNC(=O)N1N=C(c2ccc(Cl)cc2)c2cc(OCc3cccc(C)n3)ccc2CC1C (racemic) [Example 167]
pIC50 [1]: 6.51
pIC50 [2]: 5.53
pIC50 [3]: 5.49

CNC(=O)N1N=C(c2ccc(-c3c(C)noc3C)cc2)c2cc(O)ccc2CC1C (racemic) [Example 168, (±)-1-[4-(3,5-Dimethylisoxazol-4-yl)phenyl]-8-hydroxy-N,4-dimethyl-4,5-dihydro-3H-2,3-benzodiazepine-3-carboxamide]
pIC50 [1]: 6.96
pIC50 [4]: 6.66
pIC50 [3]: 6.41

CNC(=O)N1N=C(c2ccc(-c3sc(C)nc3C)cc2)c2cc(OC)c(OC)cc2C[C@H]1C (single isomer, unassigned) [Example 46.2]
pIC50 [1]: 5.94
pIC50 [2]: 5.02
pIC50 [3]: < 5.00

CNC(=O)N1N=C(c2ccc(N3CC(F)C3)cc2)c2cc(OC)c(OC)cc2C[C@@H]1C [Example 129.2, (4S)-1-[4-(3-fluoroazetidin-1-yl)phenyl]-7,8-dimethoxy-N,4-dimethyl-4,5-dihydro-3H-2,3-benzodiazepine-3-carboxamide]
pIC50 [1]: 7.70
pIC50 [2]: 7.10
pIC50 [3]: 6.82

CNC(=O)N1N=C(c2ccc(N3CCOCC3)cc2)c2cc(OC)c(OC)cc2C[C@@H]1C [Example 7.2, (4S)-7,8-dimethoxy-N,4-dimethyl-1-[4-(morpholin-4-yl)phenyl]-4,5-dihydro-3H-2,3-benzodiazepine-3-carboxamide]
pIC50 [1]: 7.52
pIC50 [5]: 7.30
pIC50 [6]: 6.72
pIC50 [2]: 7.30
pIC50 [4]: 7.22
pIC50 [3]: 7.00

CNC(=O)N1N=C(c2ccc(-c3cccc(F)c3)cc2)c2cc(OC)c(OC)cc2CC1C (racemic) [Example 89, (±)-1-(3′-fluorobiphenyl-4-yl)-7,8-dimethoxy-N,4-dimethyl-4,5-dihydro-3H-2,3-benzodiazepine-3-carboxamide]
pIC50 [1]: 6.85
pIC50 [3]: 6.42

CNC(=O)N1N=C(c2ccc(N3CCN(CCO)CC3)cc2)c2ccc(OC(F)(F)F)cc2CC1C (racemic) [Example 218, (±)-1-{4-[4-(2-hydroxyethyl)piperazin-1-yl]phenyl}-N,4-dimethyl-7-(trifluoromethoxy)-4,5-dihydro-3H-2,3-benzodiazepine-3-carboxamide]
pIC50 [1]: 6.06
pIC50 [3]: 6.52

CNC(=O)N1N=C(c2ccc(-c3cnc(C)n3C)cc2)c2cc(OC)c(OC)cc2CC1C (racemic) [Example 47, (±)-1-[4-(1,2-dimethyl-1H-imidazol-5-yl)phenyl]-7,8-dimethoxy-N-dimethyl-4,5-dihydro-3H-2,3-benzodiazepine-3-carboxamide]
pIC50 [1]: 6.96
pIC50 [3]: 6.28

CCOc1cc2c(cc1OCC)C(c1ccc(N3CCN(C)CC3)cc1)=NN(C(=O)NC)C(C)C2 (racemic) [Example 200, (±)-7,8-Diethoxy-N,4-dimethyl-1-[4-(4-methylpiperazin-1-yl)phenyl]-4,5-dihydro-3H-2,3-benzodiazepine-3-carboxamide]
pIC50 [1]: 6.30
pIC50 [3]: 6.74

CNC(=O)N1N=C(c2ccc(N3CCN(C)CC3)cc2)c2cc(Cl)c(OC(F)(F)F)cc2CC1C (racemic) [Example 213, (±)-8-chloro-N,4-dimethyl-1-[4-(4-methylpiperazin-1-yl)phenyl]-7-(trifluoromethoxy)-4,5-dihydro-3H-2,3-benzodiazepine-3-carboxamide]
pIC50 [1]: 6.44
pIC50 [3]: 6.07

CNC(=O)N1N=C(c2ccc(-c3ccc(C)cc3)cc2)c2cc(OC)c(OC)cc2CC1C (racemic) [Example 64, (±)-7,8-dimethoxy-N,4-dimethyl-1-(4′-methylbiphenyl-4-yl)-4,5-dihydro-3H-2,3-benzodiazepine-3-carboxamide]
pIC50 [1]: 6.96
pIC50 [3]: 6.06

CNC(=O)N1N=C(c2ccc(-c3ccc(F)c(C#N)c3)cc2)c2cc(OC)c(OC)cc2CC1C (racemic) [Example 75, (±)-1-(3′-cyano-4′-fluorobiphenyl-4-yl)-7,8-dimethoxy-N,4-dimethyl-4,5-dihydro-3H-2,3-benzodiazepine-3-carboxamide]
pIC50 [1]: 6.89
pIC50 [3]: 6.18

CNC(=O)N1N=C(c2ccc(-c3cncc(C#N)c3)cc2)c2cc(OC)c(OC)cc2CC1C (racemic) [Example 126, (±)-1-[4-(5-cyanopyridin-3-yl)phenyl]-7,8-dimethoxy-N,4-dimethyl-4,5-dihydro-3H-2,3-benzodiazepine-3-carboxamide]
pIC50 [1]: 7.05
pIC50 [3]: 6.13

CNC(=O)N1N=C(c2ccc(N3CC(F)C3)cc2)c2cc(OC)c(OC)cc2C[C@H]1C [Example 129.1, (4R)-1-[4-(3-fluoroazetidin-1-yl)phenyl]-7,8-dimethoxy-N,4-dimethyl-4,5-dihydro-3H-2,3-benzodiazepine-3-carboxamide]
pIC50 [1]: 5.18
pIC50 [3]: < 5.00

CNC(=O)N1N=C(c2ccc(-n3nc(C)nc3C)cc2)c2cc(OC)c(OC)cc2CC1C (racemic) [Example 154, (±)-1-[4-(3,5-dimethyl-1H-1,2,4-triazol-1-yl)phenyl]-7,8-dimethoxy-N,4-dimethyl-4,5-dihydro-3H-2,3-benzodiazepine-3-carboxamide]
pIC50 [1]: 6.77
pIC50 [3]: 5.68

CNC(=O)N1N=C(c2ccc(-c3c(C)noc3C)cc2)c2cc(OC)c(OC(F)F)cc2C[C@@H]1C [Example 162.1, (4S)-7-(difluoromethoxy)-1-[4-(3,5-dimethylisoxazol-4-yl)phenyl]-8-methoxy-N,4-dimethyl-4,5-dihydro-3H-2,3-benzodiazepine-3-carboxamide]
pIC50 [1]: 7.00
pIC50 [3]: 6.68

CNC(=O)N1N=C(c2ccc(N3CCC(O)CC3)cc2)c2cc(OC(F)(F)F)ccc2CC1C (racemic) [Example 251, (±)-1-[4-(4-hydroxy-1-piperidinyl)phenyl]-N,4-dimethyl-8-(trifluoromethoxy)-4,5-dihydro-3H-2,3-benzodiazepine-3-carboxamide]
pIC50 [1]: 7.52
pIC50 [3]: 7.00

CNC(=O)N1N=C(c2ccc(N3CCC(NC(C)=O)CC3)cc2)c2cc(OC)c(OC)cc2CC1C (racemic) [Example 182, (±)-1-[4-(4-acetamidopiperidin-1-yl)phenyl]-7,8-dimethoxy-N,4-dimethyl-4,5-dihydro-3H-2,3-benzodiazepine-3-carboxamide]
pIC50 [1]: 7.30
pIC50 [3]: 6.40

CNC(=O)N1N=C(c2ccc(-c3ccc(C(F)(F)F)nc3)cc2)c2cc(OC)c(OC)cc2CC1C (racemic) [Example 50, (±)-7,8-dimethoxy-N,4-dimethyl-1-{4-[6-(trifluoromethyl)pyridin-3-yl]phenyl}-4,5-dihydro-3H-2,3-benzodiazepine-3-carboxamide]
pIC50 [1]: 6.82
pIC50 [3]: 6.25

CNC(=O)N1N=C(c2ccc(-c3ccccc3F)cc2)c2cc(OC)c(OC)cc2CC1C (racemic) [Example 93, (±)-1-(2′-fluorobiphenyl-4-yl)-7,8-dimethoxy-N,4-dimethyl-4,5-dihydro-3H-2,3-benzodiazepine-3-carboxamide]
pIC50 [1]: 6.92
pIC50 [3]: 6.34

CNC(=O)N1N=C(c2ccc(N3CCC(N(C)C)CC3)cc2)c2cc(OC)c(OC)cc2C[C@H]1C [Example 180.1, (4R)-1-{4-[4-(dimethylamino)piperidin-1-yl]phenyl}-7,8-dimethoxy-N,4-dimethyl-4,5-dihydro-3H-2,3-benzodiazepine-3-carboxamide]
pIC50 [1]: 6.41
pIC50 [3]: 5.57

CNC(=O)N1N=C(c2ccc(Cl)cc2)c2cc(N3CCS(=O)(=O)CC3)c(OC(F)(F)F)cc2CC1C (racemic) [Example 216, (±)-1-(4-chlorophenyl)-8-(1,1-dioxidothiomorpholin-4-yl)-N,4-dimethyl-7-(trifluoromethoxy)-4,5-dihydro-3H-2,3-benzodiazepine-3-carboxamide]
pIC50 [1]: 6.28
pIC50 [3]: 5.99
